Source: patent US11352391B2, “Compositions for inducing urinary voiding and defecation” (Dignify Therapeutics, LLC, priority 2017, dated 2022)
Where a SMILES comes first, the peptide text is derived from it.

Assays:
[1] = Saline solubility of heptapeptides; assay type: physicochemical
Procedure: Heptapeptides A-K shown below in Table 1 (SEQ ID NOs: 1-11) were synthesized according to standard Fmoc-mediated solid-phase techniques and purified under typical C18 reverse-phase conditions.
Compounds D-K were considered to be insoluble in saline (<1 mg/mL).

[2] = molecular target: T1, human NK2 Receptor (hNK2R) (Homo sapiens, UniProt P21452); assay: [125I]-NKA radioligand competition binding to human recombinant NK2Rs (CHO-hNK2 membranes)
T1 sequence (P21452 1-398): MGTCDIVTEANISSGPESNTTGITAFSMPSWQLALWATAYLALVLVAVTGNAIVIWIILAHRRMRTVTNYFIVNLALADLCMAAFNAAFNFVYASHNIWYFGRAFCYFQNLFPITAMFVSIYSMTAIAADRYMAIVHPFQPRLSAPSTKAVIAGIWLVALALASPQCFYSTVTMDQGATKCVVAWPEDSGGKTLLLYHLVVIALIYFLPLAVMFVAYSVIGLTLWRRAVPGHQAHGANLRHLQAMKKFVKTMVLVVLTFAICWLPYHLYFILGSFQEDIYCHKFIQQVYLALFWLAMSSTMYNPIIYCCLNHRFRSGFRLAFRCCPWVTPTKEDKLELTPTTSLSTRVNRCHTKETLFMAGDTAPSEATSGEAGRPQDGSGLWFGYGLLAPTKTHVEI
Procedure: After removal of the supernatant the cell pellet was washed and collected by re-suspension in PBS and centrifugation.
Frozen pellets were thawed and homogenized in 10 volumes (w/v) of membrane preparation buffer (50 mM HEPES pH 7.4, 1 mM EDTA, 50 μg/mL bacitracin and protease inhibitors) using a Polytron Ultraturrax (twice for 15 s per cycle). […] Protein concentration was determined using BioRad Protein Assay (Milan, Italy) with a BSA standard curve.

[3] = molecular target: T2, recombinant hNK2R expressed in CHO cells (Homo sapiens, UniProt P21452); assay: Intracellular calcium mobilization (FLIPR) in CHO-hNK2 cells; assay type: cell-based
T2 sequence (P21452 1-398): T1 sequence (P21452 1-398)
Procedure: (§1) CHO-hNK1 and CHO-hNK2 cells were seeded into black walled clear-bottom 384-well plates) at a density of 10,000 and 15,000 cells per well in 50 μL culture media, respectively, and grown overnight at 37° C. in a humidified CO2-incubator. Cells were washed in washing buffer using the EMBLA 384 instrument, leaving 20 μL of buffer per well after the final aspiration. Cells were then incubated at 37° C. with the cytoplasmic Ca2+ indicator Fluo-4 AM (final concentration 1 μM) in assay buffer (20 mM HEPES, 145 mM NaCl, 5 mM KCl, 5.5 mM glucose, 1 mM MgCl2 and 2 mM CaCl2, pH 7.4, 0.05% Pluronic F-127 and 0.1% BSA) containing 2.5 mM probenecid for […] (cell loading). Cells were then washed 3 times in washing buffer (20 mM HEPES, 145 mM NaCl, 5 mM KCl, 5.5 mM glucose, 1 mM MgCl2 and 2 mM CaCl2, pH 7.4 and 2.5 mM probenecid) using the EMBLA 384 instrument, leaving 30 μL of buffer in each well after the last wash. Loaded cell plates were transferred to the FLIPR machine and calcium responses were monitored as described below. A dual read-out FLIPR protocol was used, allowing for characterization of both agonist and antagonist profiles. For quality control, in each compound plate the signal was monitored by evaluating the responses to the reference standards (NKA and Substance P).
(§2) Concentration response curves of compounds were run in duplicate on two different occasions from the same stock solutions. Test solutions were prepared from 10 mM stock solutions in DMSO and 1 μL of each solution was stamped into V-bottom assay plates containing 49 μL assay buffer. The final concentration of DMSO was 0.5% in each well.

[4] = molecular target: recombinant hNK1R expressed in CHO cells (Homo sapiens, UniProt P25103); assay: Intracellular calcium mobilization (FLIPR) in CHO-hNK1 cells; assay type: cell-based; settings: calcium mobilization, CHO-hNK1 cells; read-out: hNK1 EC50
recombinant hNK1R expressed in CHO cells, sequence (P25103 whole entry): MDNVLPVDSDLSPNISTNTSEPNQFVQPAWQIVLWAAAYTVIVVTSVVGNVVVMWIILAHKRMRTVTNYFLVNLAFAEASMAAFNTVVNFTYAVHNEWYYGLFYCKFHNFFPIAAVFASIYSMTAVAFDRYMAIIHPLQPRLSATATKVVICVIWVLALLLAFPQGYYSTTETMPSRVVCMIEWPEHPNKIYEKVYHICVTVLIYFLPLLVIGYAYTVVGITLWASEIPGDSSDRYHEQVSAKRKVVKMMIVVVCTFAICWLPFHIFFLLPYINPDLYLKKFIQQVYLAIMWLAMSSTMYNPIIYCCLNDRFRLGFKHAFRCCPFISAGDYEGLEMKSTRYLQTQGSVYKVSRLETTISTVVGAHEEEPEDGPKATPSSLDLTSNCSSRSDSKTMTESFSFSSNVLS
Procedure: as §1, §2

solubility [1]: > 20 mg/mL | Ki ([2]; displacement of 0.1 nM [125I]-NKA, CHO-hNK2 membranes, read-out: hNK2 binding Ki): 590 pM | hNK2 selectivity ratio ([2]; ratio of Kis hNK1R/hNK2R): 557.83 | EC50 ([3]; calcium mobilization, CHO-hNK2 cells, read-out: hNK2 EC50): 80 pM | hNK2 selectivity ratio ([3]; ratio of EC50s hNK1R/hNK2R): 70 | EC50 [4]: 5840 pM
Compound: CCCC[C@H](NC(=O)[C@H](CC(C)C)N(C)C(=O)CNC(=O)[C@@H](NC(=O)[C@H](Cc1ccccc1)NC(=O)[C@H](CCCNC(=N)N)NC(=O)[C@@H](N)CC(=O)O)C(C)C)C(N)=O [Compound B, Asp-Arg-Phe-Val-Gly-(NMe-Leu)-Nle-NH2] (HELM PEPTIDE1{D.R.F.V.G.[meL].[Nle].[am]}$$$$V2.0; N-terminus assumed)
